The results in this text go back to ChEMBL document CHEMBL1125348, “The first mechanism-based inactivators for angiotensin-converting enzyme” (J Med Chem, 1992).

As a reminder, the Ki is a measure of affinity in units of concentration, obtained from inhibition or displacement. Low values mean tighter binding, high ones weaker binding. As usually defined, the Km is the concentration of substrate that gives half-maximal velocity.

Common to all, as to format: protein assay
For data set [1], the target named is T1, Angiotensin-converting enzyme (Homo sapiens, UniProt P12821+Q9BYF1). Nature of the data set: First order rate constant for angiotensin I converting enzyme.
For data set [2], the target named is T1, Angiotensin-converting enzyme. Nature of the data set: kinact for angiotensin I converting enzyme.
The target is the same in data set [3]. As to the kind of experiment: Inhibition of hydrolysis of N-[3-(2-furyl)acryloyll-Phe-Gly-Gly7 by angiotensin I converting enzyme.
Data set [4] relates to N#CCC(=O)N[C@@H](Cc1ccccc1)C(=O)N[C@@H](Cc1ccccc1)C(=O)O. Nature of the data set: Km for angiotensin I converting enzyme.

T1 sequence (P12821 whole entry, looked up): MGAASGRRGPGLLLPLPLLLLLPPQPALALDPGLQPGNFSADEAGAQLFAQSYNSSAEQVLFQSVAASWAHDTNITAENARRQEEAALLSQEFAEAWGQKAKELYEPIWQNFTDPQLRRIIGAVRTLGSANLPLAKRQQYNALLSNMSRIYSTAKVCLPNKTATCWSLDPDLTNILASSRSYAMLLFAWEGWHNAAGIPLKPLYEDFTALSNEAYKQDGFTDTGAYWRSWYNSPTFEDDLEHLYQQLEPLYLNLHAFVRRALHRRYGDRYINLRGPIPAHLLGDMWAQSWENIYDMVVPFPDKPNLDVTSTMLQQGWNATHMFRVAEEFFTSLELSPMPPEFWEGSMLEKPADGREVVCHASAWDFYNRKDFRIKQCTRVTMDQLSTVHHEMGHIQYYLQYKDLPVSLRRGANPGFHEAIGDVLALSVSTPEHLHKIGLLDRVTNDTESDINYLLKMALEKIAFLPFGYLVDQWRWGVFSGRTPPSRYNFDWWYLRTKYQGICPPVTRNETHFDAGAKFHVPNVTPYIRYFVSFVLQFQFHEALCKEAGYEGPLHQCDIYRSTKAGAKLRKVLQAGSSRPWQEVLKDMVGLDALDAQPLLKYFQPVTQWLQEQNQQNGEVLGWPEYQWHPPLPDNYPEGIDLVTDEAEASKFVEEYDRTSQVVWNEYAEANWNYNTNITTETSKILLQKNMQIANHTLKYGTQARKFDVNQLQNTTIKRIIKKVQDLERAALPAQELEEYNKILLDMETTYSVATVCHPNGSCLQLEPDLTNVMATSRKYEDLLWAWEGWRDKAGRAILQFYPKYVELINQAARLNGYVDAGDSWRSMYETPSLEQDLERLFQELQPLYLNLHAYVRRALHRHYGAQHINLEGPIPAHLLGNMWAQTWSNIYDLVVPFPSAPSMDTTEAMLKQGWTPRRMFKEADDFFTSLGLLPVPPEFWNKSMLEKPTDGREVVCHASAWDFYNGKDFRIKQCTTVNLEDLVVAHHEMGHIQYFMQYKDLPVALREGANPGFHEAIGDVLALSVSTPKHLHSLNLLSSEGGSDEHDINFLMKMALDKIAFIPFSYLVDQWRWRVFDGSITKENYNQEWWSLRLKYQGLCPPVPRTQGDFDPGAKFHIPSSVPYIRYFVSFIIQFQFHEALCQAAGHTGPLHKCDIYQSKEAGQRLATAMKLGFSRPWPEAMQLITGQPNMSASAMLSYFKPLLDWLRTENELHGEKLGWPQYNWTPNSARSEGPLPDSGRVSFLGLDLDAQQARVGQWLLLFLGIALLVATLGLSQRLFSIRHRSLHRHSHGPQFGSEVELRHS
T1 sequence (Q9BYF1 whole entry, looked up): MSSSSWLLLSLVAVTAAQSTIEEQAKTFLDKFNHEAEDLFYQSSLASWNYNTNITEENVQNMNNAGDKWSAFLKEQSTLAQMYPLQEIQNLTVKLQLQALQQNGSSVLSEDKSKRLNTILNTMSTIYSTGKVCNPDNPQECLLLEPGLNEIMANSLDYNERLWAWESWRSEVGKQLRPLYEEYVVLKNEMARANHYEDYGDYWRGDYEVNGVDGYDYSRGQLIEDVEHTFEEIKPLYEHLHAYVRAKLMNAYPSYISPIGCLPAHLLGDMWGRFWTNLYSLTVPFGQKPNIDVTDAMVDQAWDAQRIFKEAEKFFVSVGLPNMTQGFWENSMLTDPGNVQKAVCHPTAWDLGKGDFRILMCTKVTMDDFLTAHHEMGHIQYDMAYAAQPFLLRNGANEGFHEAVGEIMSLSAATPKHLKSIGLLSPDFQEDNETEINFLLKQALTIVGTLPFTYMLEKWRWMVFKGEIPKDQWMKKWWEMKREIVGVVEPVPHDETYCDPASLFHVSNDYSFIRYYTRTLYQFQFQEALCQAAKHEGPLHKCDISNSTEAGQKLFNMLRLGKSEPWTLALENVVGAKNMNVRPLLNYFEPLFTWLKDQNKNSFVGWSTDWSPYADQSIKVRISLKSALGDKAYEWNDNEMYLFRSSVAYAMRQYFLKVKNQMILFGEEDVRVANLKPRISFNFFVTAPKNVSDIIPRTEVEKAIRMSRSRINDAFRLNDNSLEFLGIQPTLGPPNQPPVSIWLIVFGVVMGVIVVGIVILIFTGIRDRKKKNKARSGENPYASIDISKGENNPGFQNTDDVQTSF
Angiotensin-converting enzyme (Homo sapiens), sequence (Q9BYF1 whole entry, looked up): as above
Angiotensin-converting enzyme (Homo sapiens), sequence (P12821 whole entry, looked up): as the sequence (P12821 whole entry, looked up) above

In turn, `N#CCC(=O)N[C@@H](Cc1ccccc1)C(=O)N[C@@H](Cc1ccccc1)C(=O)O` gave a k obs in data set [1] of 0.000835 s⁻¹. Besides, the K inact in data set [2] stood at 0.08 min⁻¹. In data set [3], the Ki turned out to be 65 µM.
For the compound `CC(C)C[C@H](NC(=O)[C@H](C)NC(=O)CC#N)C(=O)O`, in data set [1], the k obs stood at 0.000501 s⁻¹.
As to “Angiotensin-converting enzyme (Homo sapiens) (from UniProt P12821+Q9BYF1)”, the Km in data set [4] turned out to be 10.5 mM.
Regarding `C[C@H](NC(=O)CC#N)C(=O)N[C@@H](Cc1ccccc1)C(=O)O`, in data set [1], the k obs turned out to be 0.000251 s⁻¹.
